Source: patent publication US3988450A, “Cephalosporins” (priority 1974, dated 1976)
In brackets after ≈: the same amount, converted by molar mass. Read-outs that look alike come from different tables or passages of the source.

Legend:
[1] = Serum concentrations in mice after sub-cutaneous injection, microbiological assay; type: in vivo; settings: mouse, sc, 50 mg/kg sub-cutaneous, average, read-out: Serum concentrations at time after dosing; for concentration at 0.5 h: 30 min; for concentration at 1 h: 60 min
Description: Each compound was injected sub-cutaneously into groups of mice at a dose of 50 mg/kg, and serum samples were taken at timed intervals thereafter and assayed microbiologically for their antibiotic content using the appropriate compound as standard.

[2] = test system: B. subtilis; assay: MIC on nutrient agar; type: cell-based; settings: Bacillus subtilis
From the text: (§1) The minimum inhibitory concentrations of this compound required to inhibit the growth of various bacteria on nutrient agar are tabulated below: […]

[3] = test system: Proteus mirabilis C977; assay: MIC on nutrient agar; type: cell-based
From the text: as §1

[4] = test system: Salmonella typhi; assay: MIC on nutrient agar; type: cell-based; settings: Salmonella enterica
From the text: as §1

[5] = test system: Staph. aureus Oxford; assay: MIC on nutrient agar; type: cell-based; settings: Staphylococcus aureus
From the text: as §1

[6] = test system: β-Haemolytic Strep. CN10; assay: MIC on nutrient agar; type: cell-based
From the text: as §1

[7] = test system: Staph. aureus Russell; assay: MIC on nutrient agar; type: cell-based; settings: Staphylococcus aureus
[8] = test system: P. mirabilis 899; assay: MIC on nutrient agar; type: cell-based; settings: Proteus mirabilis; P. mirabilis 899, nutrient agar
[9] = test system: E. coli JT1; assay: MIC on nutrient agar; type: cell-based; settings: Escherichia coli
From the text: as §1

[10] = test system: Enterobacter cloacae N1; assay: MIC on nutrient agar; type: cell-based
From the text: as §1

[11] = test system: Klebsiella aerogenes A; assay: MIC on nutrient agar; type: cell-based
From the text: as §1

[12] = test system: Serratia marcescens US32; assay: MIC on nutrient agar; type: cell-based
From the text: as §1

[13] = test system: Shigella sonnei; assay: MIC on nutrient agar; type: cell-based
From the text: as §1

[14] = test system: P. morganii; assay: MIC on nutrient agar; type: cell-based; settings: Morganella morganii
From the text: as §1

[15] = general knowledge; cited from earlier work
[16] = test system: P. mirabilis 889; assay: MIC on nutrient agar; type: cell-based; settings: Proteus mirabilis; P. mirabilis 889, nutrient agar
From the text: as §1

[17] = E. coli JT1, nutrient agar, read-out: MIC

SMILES | MIC [2] | MIC [3] | MIC [4] | MIC [5] | MIC [6] | MIC [7] | MIC [9, 17] | MIC [11] | MIC [13] | also measured
N[C@@H](C(=O)N[C@@H]1C(=O)N2C(C(=O)O)=C(Cc3cccc(C(=O)O)c3)CS[C@H]12)c1ccccc1 [m-carboxy isomer, 3-(m-Carboxybenzyl)-7β-(D-α-phenylglycyl)amino-ceph-3-em-4-carboxylic acid] | – | – | – | – | – | – | – | – | – | concentration at 10 min [1]: 84 µg/mL; concentration at 20 min [1]: 64 µg/mL; concentration at 0.5 h [1]: 50 µg/mL; concentration at 1 h [1]: 26 µg/mL; concentration at 2 h [1]: 14 µg/mL; concentration at 4 h [1]: 1.6 µg/mL
O=C(Cc1cccs1)N[C@@H]1C(=O)N2C(C(=O)O)=C(Cc3ccc(C(=O)O)cc3)CS[C@H]12 [XXX, 7β-(2-Thienylacetamido)-3-(p-carboxybenzyl)ceph-3-em-4-carboxylic acid] | 1.2 mg/L (≈ 2.62 µM) | 5 mg/L (≈ 10.9 µM) | 5 mg/L (≈ 10.9 µM) | 0.1 mg/L (≈ 0.218 µM) | 0.5 mg/L (≈ 1.09 µM) | 5 mg/L (≈ 10.9 µM) | – | – | – | MIC [8]: 2.5 mg/L (≈ 5.45 µM)
N[C@@H](C(=O)N[C@@H]1C(=O)N2C(C(=O)O)=C(Cc3ccc(C(=O)O)cc3)CS[C@H]12)c1ccc(O)cc1.O=C(O)C(F)(F)F [XVII, 3-(p-carboxybenzyl)-7β-(D-α-p-hydroxyphenylglycyl)aminoceph-3-em-4-carboxylic acid trifluoroacetic acid salt] | 5 mg/L | 2.5 mg/L | 5 mg/L | 2.5 mg/L | 0.5 mg/L | 5 mg/L | – | – | – | –
O=C(O)C1=C(Cc2ccc(C(=O)O)cc2)CS[C@@H]2[C@H](NC(=O)[C@H](O)c3ccccc3)C(=O)N12 [XV] | 0.5 mg/L (≈ 1.07 µM) | 0.5 mg/L (≈ 1.07 µM) | 5 mg/L (≈ 10.7 µM) | 0.25 mg/L (≈ 0.534 µM) | 0.25 mg/L (≈ 0.534 µM) | – | 5 mg/L (≈ 10.7 µM) | – | – | –
CN(C(=O)C=Cc1ccccc1)C(=O)N[C@@H](C(=O)N[C@@H]1C(=O)N2C(C(=O)O)=C(Cc3ccc(C(=O)O)cc3)CS[C@H]12)c1ccccc1 [XXI, 3-(p-Carboxybenzyl)-7β-[D-α-(3-cinnamoyl-3-methylureido)phenylacetamido]ceph-3-em-4-carboxylic acid] | – | 5 mg/L (≈ 7.64 µM) | 12.5 mg/L (≈ 19.1 µM) | 2.5 mg/L (≈ 3.82 µM) | 0.12 mg/L (≈ 0.183 µM) | – | – | 5 mg/L (≈ 7.64 µM) | 5 mg/L (≈ 7.64 µM) | MIC ([9]; JT1): 12.5 mg/L (≈ 19.1 µM); MIC [10]: 5 mg/L (≈ 7.64 µM); MIC [12]: 5 mg/L (≈ 7.64 µM)
CN(C(=O)C=Cc1ccccc1)C(=O)N[C@@H](C(=O)N[C@@H]1C(=O)N2C(C(=O)O)=C(Cc3ccccc3C(=O)O)CS[C@H]12)c1ccccc1 [LVIX, 3-(o-Carboxybenzyl)-7β-[D-α-(3-cinnamoul-3-methylureido)phenylacetamido]ceph-3-em-4-carboxylic acid] | – | – | – | 4 mg/L (≈ 6.11 µM) | 0.25 mg/L (≈ 0.382 µM) | – | – | – | 4 mg/L (≈ 6.11 µM) | MIC [12]: 4 mg/L (≈ 6.11 µM)
N[C@@H](C(=O)N[C@@H]1C(=O)N2C(C(=O)O)=C(Cc3ccccc3C(=O)O)CS[C@H]12)c1ccccc1 [o-carboxy isomer, 3-(o-Carboxybenzyl)-7β-(D-α-phenylglycyl)aminoceph-3-em-4-carboxylic acid] | – | – | – | – | – | – | – | – | – | concentration at 10 min [1]: 63 µg/mL; concentration at 20 min [1]: 66 µg/mL; concentration at 0.5 h [1]: 58 µg/mL; concentration at 1 h [1]: 49 µg/mL; concentration at 2 h [1]: 41 µg/mL; concentration at 4 h [1]: 31 µg/mL
N[C@@H](C(=O)N[C@@H]1C(=O)N2C(C(=O)O)=C(Cc3cccc(C(=O)O)c3)CS[C@H]12)c1ccccc1 [XLI, 3-(m-Carboxybenzyl)-7β-(D-α-phenylglycyl)amino-ceph-3-em-4-carboxylic acid] | 0.25 mg/L (≈ 0.535 µM) | 2.5 mg/L (≈ 5.35 µM) | 2.5 mg/L (≈ 5.35 µM) | 0.25 mg/L (≈ 0.535 µM) | 0.12 mg/L (≈ 0.257 µM) | 1.25 mg/L (≈ 2.67 µM) | 12.5 mg/L (≈ 26.7 µM) | 2.5 mg/L (≈ 5.35 µM) | – | –
CN(N=Cc1ccccc1)C(=O)N[C@@H](C(=O)N[C@@H]1C(=O)N2C(C(=O)O)=C(Cc3ccc(C(=O)O)cc3)CS[C@H]12)c1ccccc1 [XIX, 3-(p-Carboxybenzyl)-7β-[D-α-(3-benzylideneimino-3-methylureido)phenylacetamido]ceph-3-em-4-carboxylic acid] | – | 5 mg/L (≈ 7.97 µM) | 5 mg/L (≈ 7.97 µM) | 1.25 mg/L (≈ 1.99 µM) | 0.12 mg/L (≈ 0.191 µM) | – | 12.5 mg/L (≈ 19.9 µM) | 5 mg/L (≈ 7.97 µM) | 2.5 mg/L (≈ 3.98 µM) | MIC [10]: 5 mg/L (≈ 7.97 µM); MIC [14]: 12.5 mg/L (≈ 19.9 µM); MIC [12]: 12.5 mg/L (≈ 19.9 µM)
NC(=O)N[C@H](Cc1c[nH]c2ccccc12)C(=O)N[C@@H](C(=O)N[C@@H]1C(=O)N2C(C(=O)O)=C(Cc3ccc(C(=O)O)cc3)CS[C@H]12)c1ccccc1 [XXVI] | – | 12.5 mg/L (≈ 17.9 µM) | 5 mg/L (≈ 7.18 µM) | 0.5 mg/L (≈ 0.718 µM) | – | 5 mg/L (≈ 7.18 µM) | 5 mg/L (≈ 7.18 µM) | 5 mg/L (≈ 7.18 µM) | 5 mg/L (≈ 7.18 µM) | –
N[C@@H](C(=O)N[C@@H]1C(=O)N2C(C(=O)O)=C(Cc3ccc(C(=O)O)cc3)CS[C@H]12)c1ccccc1.O=C(O)C(F)(F)F [XIII, 3-(p-Carboxybenzyl)-7β-(D-α-phenylglycyl)amino-ceph-3-em-4-carboxylic acid trifluoroacetic acid salt] | 1.25 mg/L | 1.25 mg/L | 0.5 mg/L | 0.5 mg/L | 0.5 mg/L | 2.5 mg/L | 12.5 mg/L | – | 5 mg/L | –
Cc1nnc(SCC2=C(C(=O)O)N3C(=O)[C@@H](NC(=O)Cn4cnnn4)[C@H]3SC2)s1 [Cefazolin, reference compound] | – | – | – | – | – | – | – | – | – | concentration at 10 min [1]: 45 µg/mL; concentration at 20 min [1]: 37 µg/mL; concentration at 0.5 h [1]: 21 µg/mL; concentration at 1 h [1]: < 4 µg/mL; concentration at 2 h [1]: < 4 µg/mL; concentration at 4 h [1]: < 4 µg/mL; duration of action (regarded as) [15]: relatively `long-acting` cephalosporin
CN(N=Cc1ccccc1)C(=O)N[C@@H](C(=O)N[C@@H]1C(=O)N2C(C(=O)O)=C(Cc3ccccc3C(=O)O)CS[C@H]12)c1ccccc1 [LVIII, 3-(o-Carboxybenzyl)-7β-[D-α-(3-benzylideneimino-3-methylureido)-phenylacetamido]-ceph-3-em-4-carboxylic acid] | – | – | – | 8 mg/L (≈ 12.7 µM) | 0.2 mg/L (≈ 0.319 µM) | – | 8 mg/L (≈ 12.7 µM) | – | 4 mg/L (≈ 6.37 µM) | MIC [10]: 8 mg/L (≈ 12.7 µM)
O=C(O)C1=C(Cc2cccc(C(=O)O)c2)CS[C@@H]2[C@H](NC(=O)[C@H](O)c3ccccc3)C(=O)N12 [XLIII] | 0.5 mg/L (≈ 1.07 µM) | 8 mg/L (≈ 17.1 µM) | 8 mg/L (≈ 17.1 µM) | 0.5 mg/L (≈ 1.07 µM) | 2 mg/L (≈ 4.27 µM) | – | – | – | – | –
N[C@@H](C(=O)N[C@@H]1C(=O)N2C(C(=O)O)=C(Cc3ccccc3C(=O)O)CS[C@H]12)c1ccccc1 [LV, 3-(o-Carboxybenzyl)-7β-(D-α-phenylglycyl)aminoceph-3-em-4-carboxylic acid] | 1.25 mg/L (≈ 2.67 µM) | 5 mg/L (≈ 10.7 µM) | – | 5 mg/L (≈ 10.7 µM) | 5 mg/L (≈ 10.7 µM) | – | 12.5 mg/L (≈ 26.7 µM) | 5 mg/L (≈ 10.7 µM) | – | MIC [16]: 5 mg/L (≈ 10.7 µM)
N[C@@H](C(=O)N[C@@H]1C(=O)N2C(C(=O)O)=C(Cc3ccc(C(=O)O)cc3)CS[C@H]12)c1ccccc1 [p-carboxy isomer, 3-(p-Carboxybenzyl)-7β-(D-α-phenylglycyl)amino-ceph-3-em-4-carboxylic acid] | – | – | – | – | – | – | – | – | – | concentration at 10 min [1]: 75 µg/mL; concentration at 20 min [1]: 87 µg/mL; concentration at 0.5 h [1]: 69 µg/mL; concentration at 1 h [1]: 48 µg/mL; concentration at 2 h [1]: 22 µg/mL; concentration at 4 h [1]: 9.3 µg/mL
